Where two headings read alike, the source gives them in different places.
Experiments:
[1] = tested on: human ALS patients; details: 30 mg intravenously twice daily over 20 consecutive working days; cited from earlier work
[2] = tested on: ALS disease onset of between 3 and 36 months; details: 30 mg, twice a day, 6-month study; cited from earlier work
[3] = tested on: ALS patients; assay: Fasudil treatment of patients with disease onset at least 24 months prior to treatment; assay type: in vivo, human
Description: This could not have been predicted from the trials with edaravone, above. […] (Liu 2016). The invention is based on the surprising discovery that orally-administered fasudil can treat ALS patients with disease onset of about two years or more prior treatment. These patients include but are not limited to patients with more advanced disease, but also includes slow-progressing patients.

[4] = in vivo, 1-hydroxy (M3) metabolite; cited from earlier work
[5] = tested on: severe ALS patients; details: disease onset of less than three years; cited from earlier work
[6] = tested on: ALS patients; details: enrollment of three years or less; cited from earlier work
[7] = tested on: ALS patients; details: patients diagnosed two years or less; cited from earlier work

Question: With `Cl.O=S(=O)(c1cccc2cnccc12)N1CCCNCC1` [Fasudil, Hexahydro-1-(5-isoquinolinesulfonyl)-1H-1,4-diazepine monohydrochloride hemihydrate] as the compound, how does the “outcome of compassionate use” value [1] read?
Answer: no conclusive results beyond safety

Question: And the disease modification [2]?
Answer: did not result in any disease modification

Question: What about the benefit from treatment [3] of the same compound?
Answer: benefitted

Question: With `O=S(=O)(c1cccc2c(O)nccc12)N1CCCNCC1` [M3, hydroxyfasudil] as the compound, how does the half-life [4] read?
Answer: about 8 hours

Question: What does the source list for `CC1=NN(c2ccccc2)C(=O)C1` [edaravone]?
Answer: treatment effect between placebo and edaravone [5]: failed to demonstrate any treatment effect; primary endpoint [6]: did not meet the primary endpoint; primary endpoint [7]: met the primary endpoint

Source: patent publication US20260014167A1, “Treating Amyotrophic Lateral Sclerosis Having Onset 24 Months Prior to Treatment” (Woolsey Pharmaceuticals, Inc., priority 2022, published 2026)
